melting point | SMILES
220 to 225 °C (dec.) | COc1cc2c(cc1OC)C(=O)C(F)(CC1CCN(CC(C)C)CC1)C2.Cl (stereo not drawn)
215 to 220 °C (dec.) | COc1cc2c(cc1OC)C(=O)C(F)(CC1CCN(C)CC1)C2.Cl (stereo not drawn)
> 240 °C (dec.) | COc1cc2c(cc1OC)C(=O)C(F)(CC1CCNCC1)C2.Cl (stereo not drawn)
